Test results: BindingDB's records for doi:10.1107/s0907444999007350 (Berlex, 1999)

molecular target: Coagulation factor X (Homo sapiens, UniProt P00742); test: Enzyme Inhibition Assay; details: pH 7.5; 22 °C
Description: The enzyme activities were determined kinetically as the initial rate of cleavage of a peptide p-nitroanilide. Km for enzyme and substrate was determined using four substrate dilutions. Enzyme was incubated with test compounds for 10 min; the reaction was then started by the addition of the substrate. […] IC50 values for inhibitors were determined from the dose response curve by fitting the data to the Hill equation. Ki,app values were calculated as the IC50/2, with the IC50 value determined at a substrate concentration equal to Km

Chain of Coagulation factor X (P00742 41-179 limits assumed): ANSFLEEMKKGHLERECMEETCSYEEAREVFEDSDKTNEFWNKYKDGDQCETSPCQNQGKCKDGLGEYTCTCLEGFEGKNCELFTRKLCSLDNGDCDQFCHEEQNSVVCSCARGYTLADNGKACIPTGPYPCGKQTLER
Chain of Coagulation factor X (P00742 235-488 limits assumed): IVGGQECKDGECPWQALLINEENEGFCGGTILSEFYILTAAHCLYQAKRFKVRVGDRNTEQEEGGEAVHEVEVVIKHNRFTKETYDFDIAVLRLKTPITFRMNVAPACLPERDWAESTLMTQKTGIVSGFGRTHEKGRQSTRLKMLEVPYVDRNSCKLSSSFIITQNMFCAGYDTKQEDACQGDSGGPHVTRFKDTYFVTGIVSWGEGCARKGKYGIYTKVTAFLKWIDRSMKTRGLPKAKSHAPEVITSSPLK

| SMILES | Ki [nM] |
| --- | --- |
| Cc1c(F)c(Oc2cccc(C(=N)N)c2)nc(Oc2cccc(C(=N)N)c2)c1F | 14 |
| CN1CCN=C1c1cccc(Oc2nc(Oc3cc(C(=N)N)ccc3O)c(F)c(N3CCCC(C(=O)O)C3)c2F)c1 (stereo not drawn) [1-[2-(5-carbamimidoyl-2-hydroxyphenoxy)-3,5-difluoro-6-[3-(1-methyl-4,5-dihydro-1H-imidazol-2-yl)phenoxy]pyridin-4-yl]piperidine-3-carboxylic acid] | 0.11 |
| [H]/N=C(/C)N1CCC(Oc2ccc3c4ccccc4n(Cc4ccc5ccc(C(=N)N)cc5c4)c3c2)CC1 [ZK-806450] | 1.6 |
